Assay results as given in patent publication US12285403B2, “A2-73 as a therapeutic for insomnia, anxiety and agitation” (Anavex Life Sciences Corp., priority 2016, dated 2025).

Tests used:
Assay type in all cases: in vivo, human
[1] = tested on: mild-to-moderate AD patients; assay: Hamilton Depression Rating Scale (HAM-D), open-label Phase 2a clinical trial; details: for Insomnia HAM-D Q5 Middle Insomnia, Mean ± SD / Insomnia HAM-D Q6 Late Insomnia, Mean ± SD / Insomnia HAM-D Q4 Initial Insomnia, Mean ± SD: score 0-2; for Insomnia HAM-D Q5 Middle Insomnia, Mean ± SD: baseline 1.5 ± 0.7; for Insomnia HAM-D Q6 Late Insomnia, Mean ± SD: baseline 1.6 ± 0.5; for Insomnia HAM-D Q4 Initial Insomnia, Mean ± SD: baseline 2 ± 0.0
Description: Efficacy data is presented through 31 week from the randomized (into different treatment regimens) open-label study with ANAVEX 2-73 oral daily dosing ranging from 10 mg to 50 mg. The data establish a method for treating insomnia, anxiety, or agitation in a subject. Efficacy extends to daily doses of up to about 100 mg of […], A1-41 or A19-144. Note is made of doses of A2-73, A1-41 or A19-144 of about 10 mg to about 30 mg, about 20 mg to about 40 mg, about 50 mg to about 80 mg. Oral dosing daily or every other day is contemplated.
This is consistent with Table 1 showing a reduction in insomnia, anxiety, and other symptoms.
The data of Table 1 is from an open-label, clinical trial, performed on a group of 30 mild-to-moderate AD patients (MMSE range 16-23, 40% female) on donepezil treatment, with ANAVEX 2-73.

[2] = Safety, tolerability and patient retention, Phase 2a study
Text: The safety and efficacy of A2-73 has been studied Phase 2a Study in mild-moderate Alzheimer's disease patients. […] Without being bound by any particular theory, it is believed that A2-73 activates the stress-reducing and survival protein, the Sigma-1 receptor. The data of Table 1 is from an open-label, clinical trial, performed on a group of 30 mild-to-moderate AD patients (MMSE range 16-23, 40% female) on donepezil treatment, with […] 2-73. […]

[3] = tested on: insomnia, anxiety or agitation; assay: Single-patient therapy Examples 1-10 (insomnia, anxiety, agitation)
Description: A person presents as suffering from maintenance insomnia for one year. They are started on oral A2-73 at 10 mg/day. […] They are currently maintained on 10 mg of A2-73 and is sleeping well. A person presents with anxiety of three years' duration. They are administered A2-73 at 20 mg oral per day every other day. […] They are maintained on this dosing schedule for 60 days. […] They are treated with 30 mg A2-73 oral daily for 30 days. […] They are currently maintained at that dosage and is not anxious. A person presents with MCI and reports maintenance insomnia for one year. They are started on oral A1-41 at 10 mg/day. […] They are currently maintained on 10 mg of A1-41 and is sleeping well. The patient is a person with diagnosed AD and reported anxiety of three years' duration. They are administered A19-144 at 20 mg oral per day every day for 90 days. […] They are chronically maintained on this dosing schedule. A person diagnosed with mild cognitive impairment presents as suffering from maintenance insomnia for one year. They are started on oral A2-73 at 50 mg/day. […] They are currently maintained on 50 mg of A2-73 daily and is sleeping well. A person diagnosed with Alzheimer's disease presents with insomnia/WASO and agitation and a systolic blood pressure of 145 mm Hg. They are started on oral A2-73 at 30 mg/day. […] They are also less agitated. Their results on all cognitive tests and HAM-D improve. They are currently maintained on 30 mg of A2-73 daily. A person diagnosed with Alzheimer's disease presents with insomnia/WASO and agitation. They are started on oral A2-73 at 100 mg/day. […] They are also less agitated. Their results on all cognitive tests and HAM-D improve. They are currently maintained on 100 mg of A2-73 every other day. A person diagnosed with Alzheimer's disease presents with insomnia/WASO and agitation. They are started on oral A19-144 at 50 mg/day. […] They are also less agitated. Their results on all cognitive tests and HAM-D improve. They are currently maintained on 50 mg of A19-144 daily. A person diagnosed with Alzheimer's disease presents with insomnia/WASO and agitation. They are started on oral A1-41 at 30 mg/day. […] They are also less agitated. Their results on all cognitive tests and HAM-D improve. They are currently maintained on 30 mg of A1-41 daily.

[4] = 30 mild-to-moderate AD patients on donepezil, open-label
[5] = 30 mild-to-moderate AD patients on donepezil, open-label, total 28 improvements
[6] = Example 7: oral 30 mg/day, 30 days
[7] = Example 8: oral 100 mg/day, 30 days

With `CN(C)CC1CCOC1(c1ccccc1)c1ccccc1.Cl` (centres unmarked) [A2-73, tetrahydro-N,N-dimethyl-2,2-diphenyl-3-furanmethanamine hydrochloride] as the compound, how does the “Scored Improvement Count, improved item of HAM-D: Agitation” value [1, 4] read?
Its value is 4.

And the “Scored Improvement Count, improved item of HAM-D: Anxiety (psychic and somatic)” value [1, 4]?
Its value is 5.

And the “Scored Improvement Count, improved item of HAM-D: Depressed” value [1, 4]?
Its value is 4.

And the “Scored Improvement Count, improved item of HAM-D: Guilt” value [1, 4]?
The value was 1.

What about the “Scored Improvement Count, improved item of HAM-D: Hypochondriasis” value [1, 4] of the same compound?
Its value is 2.

And the “Scored Improvement Count, improved item of HAM-D: Insight” value [1, 4]?
The value was 3.

What about the “Scored Improvement Count, improved item of HAM-D: Insomnia” value [1, 4] of the same compound?
Its value is 8.

What about the “Scored Improvement Count, improved item of HAM-D: Loss of libido or other genital symptoms” value [1, 4] of the same compound?
Its value is 2.

And the “Scored Improvement Count, improved item of HAM-D: Work and activities” value [1, 4]?
The value was 6.

What about the “Scored Improvement in [%], improved item of HAM-D: Agitation” value [1, 5] of the same compound?
The value was 14%.

And the “Scored Improvement in [%], improved item of HAM-D: Anxiety (psychic and somatic)” value [1, 5]?
Its value is 18%.

What about the “Scored Improvement in [%], improved item of HAM-D: Depressed” value [1, 5] of the same compound?
The value was 14%.

And the “Scored Improvement in [%], improved item of HAM-D: Guilt” value [1, 5]?
Its value is 4%.

What about the “Scored Improvement in [%], improved item of HAM-D: Hypochondriasis” value [1, 5] of the same compound?
The value was 7%.

And the “Scored Improvement in [%], improved item of HAM-D: Insight” value [1, 5]?
Its value is 11%.

And the “Scored Improvement in [%], improved item of HAM-D: Insomnia” value [1, 5]?
Its value is 29%.

What about the “Scored Improvement in [%], improved item of HAM-D: Loss of libido or other genital symptoms” value [1, 5] of the same compound?
Its value is 7%.

What about the “Scored Improvement in [%], improved item of HAM-D: Work and activities” value [1, 5] of the same compound?
Its value is 21%.

And the “Insomnia HAM-D Q5 Middle Insomnia, Mean ± SD” value ([1]; Day 13)?
Its value is 1.0 ± 1.4.

And the “Insomnia HAM-D Q6 Late Insomnia, Mean ± SD” value ([1]; Day 13)?
The value was 0.0 ± 0.0.

What about the “Insomnia HAM-D Q4 Initial Insomnia, Mean ± SD” value ([1]; Day 13) of the same compound?
Its value is 2 ± 0.0.

What about the “Insomnia HAM-D Q5 Middle Insomnia, Mean ± SD” value ([1]; Week 12/26) of the same compound?
The value was 0.0 ± 0.0.

And the “Insomnia HAM-D Q6 Late Insomnia, Mean ± SD” value ([1]; Week 12/26)?
The value was 0.0 ± 0.0.

And the “Insomnia HAM-D Q4 Initial Insomnia, Mean ± SD” value ([1]; Week 12/26)?
Its value is 0.0 ± 0.0.

What about the “Overall Hamilton Depression Rating Scale (HAM-D)” value ([1]; after 31 weeks of dosing, FIG. 7) of the same compound?
The value was “reduction”.

What about the “Changes in other behavioral items (HAM-D)” value ([1]; baseline to week 12) of the same compound?
Its value is “not statistically significant”.

And the “Subjective reports of insomnia (sleep items of HAM-D)” value ([1]; baseline to week 12, t=4.2, p<0.05, 30 AD patients, listed as ANAVEX 2-73, hydrochloride)?
The value was “marked insomnia improvements”.

What about the “Scored Improvement Count, improved items of HAM-D: Total” value ([1]; sum over all improved HAM-D items) of the same compound?
Its value is 28.

And the “Adverse event: headache” value ([2]; 30 mg)?
The value was 10%.

And the “Adverse event: mild dizziness” value ([2]; 30 mg)?
Its value is 5%.

What about the “Changes in clinical labs and EKGs” value ([2]; 30 mg) of the same compound?
The value was “no significant changes”.

What about the Tolerability ([2]; 30 mg) of the same compound?
Its Tolerability is “well tolerated”.

What about the “Safety and tolerability/risk profile” value ([2]; 32 patients with mild-to-moderate AD, Phase 2a) of the same compound?
The value was “favorable safety and tolerability/risk profile”.

What about the “Sleep at follow up (maintenance insomnia)” value ([3]; Example 1: person, oral 10 mg/day, 30 days) of the same compound?
Its value is “sleeping well”.

And the Anxiety ([3]; Example 2: person, 20 mg oral every other day, after two days of dosing)?
The Anxiety was “Resolution of the anxiety”.

And the “Clinical evaluation of agitation” value ([3]; Example 3: person, 30 mg oral daily for 30 days)?
Its value is “normal affect without agitation”.

And the “Sleep at follow up (maintenance insomnia)” value ([3]; Example 6: person with MCI, oral 50 mg/day, 30 days)?
The value was “sleeping well”.

What about the “Agitation at follow up” value [3, 6] of the same compound?
Its value is “less agitated”.

What about the “Results on all cognitive tests and HAM-D” value [3, 6] of the same compound?
Its value is “improve”.

What about the “Systolic BP at follow up” value ([3]; Example 7: oral 30 mg/day, 30 days, 145 mm Hg at presentation) of the same compound?
Its value is 129 mm Hg.

And the “Sleep at follow up (insomnia/WASO)” value ([3]; Example 7: person with AD, oral 30 mg/day, 30 days)?
The value was “sleeping well through the night”.

What about the “Agitation at follow up” value [3, 7] of the same compound?
The value was “less agitated”.

And the “Results on all cognitive tests and HAM-D” value [3, 7]?
Its value is “improve”.

And the “Sleep at follow up (insomnia/WASO)” value ([3]; Example 8: person with AD, oral 100 mg/day, 30 days)?
Its value is “sleeping well through the night”.
